Data on seven compounds can be found in PMC9499467, “Phenanthroindolizidine Alkaloids Isolated from Tylophora ovata as Potent Inhibitors of Inflammation, Spheroid Growth, and Invasion of Triple-Negative Breast Cancer” (International Journal of Molecular Sciences, 2022).

Where two headings read alike, the source gives them in different places.

Data set [1] has as its system HIF-1α. The experiment in a line: HIF inhibition, HIF-mediated UnaG reporter expression. It is filed as cell-based. As for the experimental part:
The HIF activity after treatment with compound (1s) or with the commercially available NFκB inhibitor BAY 11-7085 ((Hycultec, Beutelsbach, Germany; #HY-10257-10),) for 24 h was determined using the UnaG-reporter gene cell line MDA-MB-468-UnaG. On day 1, 1.5 × 10^4 MDA-MB-468-UnaG cells were seeded into a black 96 well plate (Greiner; #655090). […] HIF-mediated UnaG expression was recorded in z-stacked images using the CQ1 high-content imaging system (Yokogawa, Wehr, Germany; 100× g magnification). Beforehand, the UnaG fluorescence intensity was determined in UnaG-expressing cell clones (Figure S5).
Figure 7 Compound (1s) decreases HIF-dependent gene transcription. MDA-MB-468-UnaG cells were pre-treated for 1 h without (CTRL) or with compound (1s) or BAY 11-7085 (BAY) before being grown (a,b) in the absence (normoxia; CTRL) or (c,d) presence of 100 µM CoCl2 (hypoxia) for another 24 h. (a,c) Representative fluorescence images. Scale bar: 200 µm (b,d) Total fluorescence intensity of HIF-mediated UnaG was normalized to the CTRL group. Statistical difference was calculated with one-way ANOVA (b) vs. CTRL (normoxia) (ns = not significant, * p < 0.05). (d) vs. CTRL (hypoxia) (# p < 0.05); vs. CoCl2 (* p < 0.05, ** p < 0.01, *** p < 0.001). (b,d) Columns represent the mean ± SEM (n = 3).

In data set [2] the target is NFκB. Kind of data set: NFκB inhibition assay (2 h), NFκB-dependent nanoluc luciferase reporter. It counts as cell-based, human. As for the experimental part: Experiments were performed according to the published protocol. On day 1, 4 × 10^4 NFκB-MDA-MB-231-nanoluc cells were seeded into white 96 well plates (Greiner; #655098). On day 2, the medium was replaced with starvation medium and the cells were pre-incubated for 20 min with either 100 µL of DMSO (Roth; #A994.1) alone at a concentration of maximal 0.1% or with the final concentration of the diluted compounds (Table 3). To activate NFκB signaling, cells were stimulated with 1 µg/mL LPS (Sigma-Aldrich; #L2630) beforehand. NFκB-dependent luciferase activity was measured according to the manufacturer`s protocol for the Nano-Glo Luciferase Assay System (Promega, Mannheim, Germany; #N1110). NFκB-dependent luminescence was determined as relative light units (RLU) using the microplate reader Spark® (Tecan, Männedorf, Switzerland).
For orientation: A reporter such as luciferase makes a cellular process visible.

The subject of data set [3] is HIF. More on the design: method as in earlier work. The settings on record: luminal breast cancer cell line T47D; ref 62 (Chen et al.); cited from earlier work.
The test system of data set [4] is NFκB. The experiment in a line: NFκB inhibition assay (24 h), NFκB-dependent firefly luciferase reporter. It is filed as cell-based. The settings on record: Homo sapiens, read-out: NFκB Inhibition 24 h IC50. As to the method:
On day 1, 3 × 10^4 NFκB MDA-MB-231-firefly cells were seeded into white 96 well plates (Greiner; #655098). On day 2, the medium was replaced with starvation medium and the cells were pre-incubated for 20 min with either 100 µL of DMSO (Roth; #A994.1) alone at maximal 0.1%, or with the final concentration of the diluted compounds (Table 3). To activate NFκB signaling, cells were stimulated with 20 ng/mL TNFα (Peprotech, Hamburg, Germany; #300-01A). Cell lysis was performed in 20 µL 1× cell lysis buffer according to the manufacturer’s instruction for the Luciferase Assay System (Promega #E1500). NFκB-dependent luminescence was determined as relative light units (RLU) using the microplate reader Spark® (Tecan).

For data set [5], the system named is CAFs. The experiment in a line: 2D cell viability in CAFs. The settings on record: Mus musculus, 24 h, read-out: Reduction of Cell Viability 24 h IC50 in CAFs. It is filed as cell-based, murine. As for the experimental part:
Table S1 IC50-values for reduction of cell viability determined in CAFs.
Compound Cell Viability 1
1 Cell viability of CAFs was determined 24 h post-treatment with the 2D cell viability assay. CAFs were seeded at a cell density of 2.5 × 10^3 cells per well. Compound concentration was applied in triplicates in a four-fold serial dilution starting at 1000 nM. 2 Duration of treatment. 3 Mean ± SD […]
50 µM. 4 Mean ± SD (n = 3). 5 Mean ± SD (n = 2).

In data set [6] the test system is 3D co-culture spheroids of MDA-MB-231 and primary murine CAFs. The experiment in a line: 3D cell viability (ATP content) in TNBC co-culture spheroids. It counts as cell-based, human MDA-MB-231. The settings on record: for IC50: Mus musculus. As to the method:
On day 1, 3000 cells were seeded into a low-attachment 96 well plate (Greiner; #650970). […] Cell viability was determined based on the ATP content in viable cells according to the manufacturer`s instructions (Promega #G9682). Co-culture spheroids were generated for 72 h before they were grown for another 72 h with or without exposure to the compounds. […] Cell viability-dependent luminescence was determined as relative light units (RLU) using the microplate reader Spark® (Tecan).

The test system of data set [7] is MDA-MB-231. The experiment in a line: 2D cell viability (PrestoBlue resazurin) in MDA-MB-231. Particulars: Homo sapiens. It counts as cell-based, human. As to the method:
Cell viability was determined based on resazurin-reduction in viable cells according to the PrestoBlue^TM Assay. On day 1, MDA-MB-231 (1.5 × 10^4 cells per well or 7.5 × 10^3 cells per well) were seeded into black 96 well plates (Greiner; #655090) in a total volume of 100 µL. On day 2, the compounds or DMSO (Roth; #A994.1) alone at maximal 0.1% were applied (final concentrations after serial dilution shown in Table 3). An amount of 20 µM staurosporine (Sigma-Aldrich; #S5921) served as a positive control. On day 3, the PrestoBlue^TM reagent (Invitrogen^TM, Darmstadt, Germany; #A13262) was applied according to the manufacturer`s instructions. Finally, cell viability-dependent fluorescence was recorded in relative fluorescence units (RFU) with excitation/emission (Exλ/Emλ) at 535/590 nm or 560/590 nm, using the microplate reader Spark® (Tecan).
A general note: Resazurin is reduced to fluorescent resorufin, in cell work by metabolically active cells.

Where [8] appears, read: NFκB-MDA-MB-231-firefly cells, 24-h treatment, 20 ng/mL TNFα, mean ± SD.
Where [9] appears, read: Homo sapiens, NFκB-MDA-MB-231-nanoluc cells, 2-h treatment, mean ± SD, read-out: NFκB Inhibition 2 h IC50.
Setting [10] is: MDA-MB-231, 3D co-culture spheroids, 72 h treatment, mean ± SD (n = 3), read-out: Reduction of Cell Viability 72 h IC50.
Setting [11] is: MDA-MB-231 2D monolayer, 24 h post-treatment, mean ± SD, read-out: Reduction of Cell Viability 24 h IC50.

For the compound `CC(C)(C)c1ccc(S(=O)(=O)/C=C/C#N)cc1` [BAY 11-7085, reference compound], the “effect on HIF-1α-mediated UnaG expression” value in data set [1] (normoxia) was “no significant effects”. Also, the “CoCl2-induced increase in HIF-1α-activity” value in data set [1] (pre-treatment before CoCl2-simulated hypoxia, 6 µM BAY 11-7085, 2, 5, 10, 20 nM (1s)) is given as “blocked”. Also, the half-maximal inhibitory concentration (IC50) (commonly the midpoint of a concentration-inhibition curve) in data set [2] (NFκB-MDA-MB-231-nanoluc cells, 2-h treatment, mean ± SD, read-out: NFκB Inhibition 2 h IC50) was determined as 5500 ± 2000 nM.
As to `COc1ccc2c3c(c4cc(OC)c(O)cc4c2c1)CN1CCC[C@H]1[C@H]3O` [Compound (2), tylophorinidine], the “HIF induction under low oxygen level” value in data set [3] is “blockade of HIF induction”. The IC50 was 38.2 ± 14.2 nM in data set [4] (setting [8]); 19.7 ± 3.7 nM in data set [5] (CAFs, mean ± SD (n = 3)); 212 ± 69.9 nM in data set [2] (setting [9]); 442 ± 70.8 nM in data set [6] (setting [10]); 118 ± 35 nM in data set [7] (setting [11]).
Turning to `COc1cc2c3c(c4ccc(O)cc4c2cc1OC)[C@H](O)[C@@H]1CCCN1C3` [Compound (3), tylophoridicine E], in data set [3], the “HIF induction under low oxygen level” value is listed as “blockade of HIF induction”. Further, the IC50 in data set [4] (setting [8]) turned out to be 114 ± 17.9 nM; in data set [5] (CAFs, mean ± SD (n = 3)), 26.7 ± 3.1 nM; in data set [2] (setting [9]), 285 ± 60.4 nM; in data set [6] (setting [10]) it was 477 ± 160 nM; in data set [7] (setting [11]) it was 55.3 ± 13.2 nM.
As to `COc1ccc2c3c(c4cc(OC)c(OC)cc4c2c1)CN1CCC[C@H]1C3` [Compound (4), 2-demethoxytylophorine], the IC50 turned out to be 28.3 ± 5.6 nM in data set [4] (24 h); 33.5 ± 12.7 nM in data set [5]; 83 ± 14.7 nM in data set [2] (Homo sapiens, 2 h, read-out: NFκB Inhibition 2 h IC50, NFκB-MDA-MB-231-nanoluc cells, 2-h treatment, mean ± SD); 518 ± 76.8 nM in data set [6] (MDA-MB-231, 72 h, read-out: Reduction of Cell Viability 72 h IC50, 3D co-culture spheroids, 72 h treatment, mean ± SD (n = 3)); 127 ± 21.4 nM in data set [7] (MDA-MB-231, 24 h, read-out: Reduction of Cell Viability 24 h IC50, MDA-MB-231 2D monolayer, 24 h post-treatment, mean ± SD).
`COc1ccc2c(c1)c1cc(OC)c(OC)cc1c1c[n+]3c(cc21)CCC3` [Compound (5), tylophoridicine D]: in data set [3], the “HIF induction under low oxygen level” value is “not”. Moreover, the IC50 is over 1000 nM in data set [4] (setting [8]); over 1000 nM in data set [5] (CAFs, mean ± SD (n = 3)); over 1000 nM in data set [2] (setting [9]); over 1000 nM in data set [6] (setting [10]); over 1000 nM in data set [7] (setting [11]). Moreover, in data set [6] (in MDA-MB-231 or in the 3D co-culture spheroids), the “cytotoxic activity” value was “no cytotoxic activity”.
`COc1ccc2c(c1)c1cc(O)c(OC)cc1c1c[n+]3c(cc21)CCC3` [Compound (6), anhydrodehydrotylophorinidine]: the IC50 in data set [4] (setting [8]) is over 1000 nM; in data set [5] (CAFs, mean ± SD (n = 3)) it was over 1000 nM; in data set [2] (setting [9]) it was over 1000 nM; in data set [6] (setting [10]), over 1000 nM; in data set [7] (setting [11]), over 1000 nM. Moreover, the “cytotoxic activity” value in data set [6] is “no cytotoxic activity”.
In the case of `COc1ccc2c3c(c4cc(OC)c(OC)cc4c2c1)CN1CCC[C@H]1[C@@H]3O` [tylophorinine], the “HIF induction under low oxygen level” value in data set [3] was “blockade of HIF induction”.
